This is an account of results in patent US12091424B2, “Rapamycin derivatives” (NOVARTIS AG, priority 2017, dated 2024).

The test system of one data set is mTORC1 signaling. Kind of data set: MEF TSC1−/− cell-based assay for rapalog potency (pS6). More on the design: species or system Mouse. Particulars: Mus musculus, MEF TSC1−/− cells; average from multiple assays. The method, then: Cell-based assay for rapalog potency determination. Rapalog potency was determined using MEF TSC1−/− cell based assay. MEF TSC1−/− cells are Mouse Embryonic Fibroblasts deficient in Tuberous sclerosis protein—TSC1, which negatively regulates mTORC1 signaling and thus display constitutive mTORC1 activation, resulting in phosphorylation (activation) of downstream molecules. This cell-based assay is used to measure inhibition (de-phosphorylation) of S6 and 4EBP1 by rapalogs or other mTOR inhibitors.
MEF TSC1−/− cells were plated on Poly-D-lysine coated 384 well Griener clear bottom plates and incubated overnight at 37° C., 5% CO2. […] Nuclei were visualized with Hoechst (ThermoFisher Scientific #H3570) staining. Cells were imaged (InCell 600) using respective fluorescence channels and the potency of mTOR inhibitors was defined by pS6 IC50 (nM).
In vitro potency of mTOR inhibitors was defined by pS6 IC50 (nM) in MEF TSC1−/− cells.

The target in the next data set is FKBP51 (Homo sapiens (Human), UniProt Q13451). Kind of data set: SPR assay, binding affinity to FKBP51. The following applies: single-cycle kinetics. The method, then: SPR Assay to Determine Binding Affinity to FK506-Binding Proteins (FKBP). N-terminal avi-his6 tagged FKBP fusions to FKBP12, FKBP51 and FKBP52 were expressed in E. coli and purified using standard chromatography. Each protein was subsequently immobilized on a streptavidin chip in a Biacore 8K SPR instrument (GE Healthcare). Using single-cycle kinetics, compound titrations were flowed at 45 uL/min over each surface using 2-minute association and 30-minute dissociation phases in a buffer containing 50 mM Tris pH 7.5/150 mM NaCl/0.01% Tween 20/1 mM DTT/2% DMSO. The data was fit using low molecular weight (LMW) single-cycle kinetics. The equilibrium dissociation constants (KD) are reported.
(In SPR one partner is held on a chip, and binding of the other changes the refractive index at the surface.)

A short description of data set [1]: Comparative blood and brain concentrations in rats after oral dosing. The following applies: rat; p.o. 3, 10 and 30 mg/kg; 3 h and 24 h. The format is in vivo. The protocol: Concentrations were determined using HPLC/Mass spectrometry. […] Blood and brain tissues were collected at 3 hours (h) and 24 h following treatment to determine concentrations of the compounds.

In a further data set the test system is mTORC1 pathway. Kind of data set: Inhibition of mTORC1 pathway in rat liver (p-S6/t-S6 immunoblot). The format is in vivo. The method, then: Protein extraction and immunoblotting. For protein extraction, snap frozen tissues were lysed in MSD Lysis Buffer (MSD, Rockville, Maryland), supplemented with complete EDTA free protease inhibitor and PhosSTOP phosphatase inhibitor tablets (Roche, Manheim, Germany), and centrifuged at 13,000 g for 20 min at 4° C. The resultant supernatant was used for immunoblotting. Protein was quantified with BCA protein assay (Thermo Scientific, MA). Samples were resolved on 4-20% Criterion™ TGX™ Precast Midi Protein gels (Bio-Rad, CA) and transferred onto nitrocellulose membranes (Bio-Rad, CA) using a Trans Turbo Blot system (Bio-Rad, CA). Immunoblotting was performed with antibodies to p-S6 and t-S6 from Cell Signaling Technologies (all 1:1000 in TBS-T with 5% BSA). The ‘p’ and ‘t’ prefixes signify ‘phosphorylated’ and ‘total’ forms respectively. HRP-conjugated secondary antibodies against rabbit (#7074) were from Cell Signaling Technologies, MA. […] Resultant digital images were converted into a TIFF format and quantified using ImageJ software.
The ability of Example 2 to inhibit mTORC1 pathway in vivo was determined in rats aged 4 months (FIG. 5A-5D).
In general terms: In western blotting, separated proteins are transferred to a membrane and probed.

For data set [2], the system named is S6K1 (Thr389) in FKBP12 knock-down 293T cells. Put plainly: S6K1 (Thr389) phosphorylation ELISA in FKBP12 knock-down 293T cells. The format is cell-based. The following applies: 2 hours treatment. (In general: In an ELISA, binding on a coated surface is turned into a signal by an enzyme label.)
Method: Generating FKPB12 knock-down cells. […] Selection was performed with puromycin for 48 hours and cells were plated for colony formation. FKBP12 knock-down clones were screened by immunoblotting with an anti-FKBP12 antibody (Thermo Scientific, Pierce #PA1-026A).
WT, FKBP12 knock-down and FKBP12 knock-out 293T cells were plated at a density of 30,000 cells per well in poly-D-Lysine coated 96-well plates (Corning, #354461) in Dulbecco's modified Eagle's medium (ThermoFisher, #11995-065) supplemented with 10% fetal bovine serum (ThermoFisher, #16140-071). Cells were incubated at 37° C., 5% CO2 for 48 hours until they reached 80% confluence. […] Media supplemented with blank Dimethyl sulfoxide (DMSO) was used as a control for both compounds. Phosphorylated amounts of S6K1 (Thr389) were detected by a sandwich ELISA kit (Cell signaling, #7063C) following the manufacture's protocol.
The nature of a further data set: in vivo. The following applies: male, Sprague Dawley, rat, whole blood.

Chain of FKBP51 (Q13451 whole entry, the tested form may be a part): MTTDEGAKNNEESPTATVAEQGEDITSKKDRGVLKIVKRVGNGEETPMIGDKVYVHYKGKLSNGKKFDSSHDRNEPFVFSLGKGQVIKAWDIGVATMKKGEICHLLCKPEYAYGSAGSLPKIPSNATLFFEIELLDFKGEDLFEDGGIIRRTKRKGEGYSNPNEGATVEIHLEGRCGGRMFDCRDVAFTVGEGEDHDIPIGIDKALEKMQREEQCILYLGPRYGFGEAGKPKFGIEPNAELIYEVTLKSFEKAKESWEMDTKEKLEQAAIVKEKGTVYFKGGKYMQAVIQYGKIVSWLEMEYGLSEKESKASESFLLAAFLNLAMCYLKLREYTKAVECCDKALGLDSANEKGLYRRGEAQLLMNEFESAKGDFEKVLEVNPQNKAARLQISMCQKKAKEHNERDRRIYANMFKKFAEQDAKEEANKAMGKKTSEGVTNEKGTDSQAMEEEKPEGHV

`CO[C@@H]1C[C@H](C[C@@H](C)[C@@H]2CC[C@H](C)/C=C(\C)[C@@H](O)[C@@H](OC)C(=O)[C@H](C)C[C@H](C)/C=C/C=C/C=C(\C)[C@H](N3CCCS3(=O)=O)C[C@@H]3CC[C@@H](C)[C@@](O)(O3)C(=O)C(=O)N3CCCC[C@H]3C(=O)O2)CC[C@H]1O` [Example 2, (R)—C16-(1,1-dioxidoisothiazolidin-2-yl)-C32-deoxo-rapamycin]: the half-inhibitory concentration (IC50) with mTORC1 signaling amounted to 0.274 nM. Besides, the equilibrium dissociation constant (Kd) on FKBP51 is greater than 10000 nM. For the same molecule, in data set [1], the “blood concentrations compared with RAD001” value is on record as “higher” and the “brain concentrations compared with RAD001” value was “higher”. In addition, the “S6 inactivation in rat livers” value in the data set with mTORC1 pathway (24 h following dosing with 10 (trend p=0.06) and 30 mg/kg) is recorded as “remained inactivated”. For the same molecule, the “de-phosphorylation (inactivation) of S6 in rat livers” value in the data set with mTORC1 pathway (single dose 3, 10 and 30 mg/kg, three hours following dosing, vs vehicle) is “significant de-phosphorylation”. The “maximum inhibition of S6K1(Thr389)” value in data set [2] is on record as 40%. In “in vivo” (iv, 1 mg/kg), the clearance was determined as 9 mL/min/kg and the half-life was 9.9 h. For the same molecule, the bioavailability in the data set “in vivo” (oral, 3 mg/kg) turned out to be 18%.

For orientation: IC50 means the concentration that gives 50% inhibition. Low readings indicate inhibition by little substance, high ones a need for much substance. As usually defined, the Kd is the concentration at which binding is half-saturated. A lower Kd goes with a tighter complex. One may read the clearance as the volume of plasma or blood freed of the substance per unit of time. Lower therefore signals a low capacity for elimination. Broadly, the half-life is the time needed for the level to fall by half in the phase considered. Low values mean fast loss, high ones slow loss. The term bioavailability denotes the share of a dose that reaches the circulation, judged against a reference dose that is usually intravenous.
